pIC50: −log10 of the molar value.
Each compound was assayed against T1, human capsaicin receptor (Homo sapiens, UniProt Q8NER1) (assay: Calcium mobilization assay, determination of antagonist activity (Example 6)). Details: Table II; determined as described in Example 6 (antagonist activity); "*" = 1 micromolar or less.
T1 construct: pBK-CMV expression construct encoding the full length human capsaicin receptor; expressed in transfected cells
Assay type: cell-based
Summary of the method: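 Antagonism measured as inhibition of capsaicin-evoked (final concentration = EC50, from an 8-point 1 nM–3 μM curve) Fluo-3 calcium signal in stable hVR1-HEK293 cells. Test compounds at 1–5 μM final, 0.5–6 h dark preincubation at room temperature. IC50 = concentration giving 50% reduction versus agonist-only response.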

T1 sequence (Q8NER1 whole entry): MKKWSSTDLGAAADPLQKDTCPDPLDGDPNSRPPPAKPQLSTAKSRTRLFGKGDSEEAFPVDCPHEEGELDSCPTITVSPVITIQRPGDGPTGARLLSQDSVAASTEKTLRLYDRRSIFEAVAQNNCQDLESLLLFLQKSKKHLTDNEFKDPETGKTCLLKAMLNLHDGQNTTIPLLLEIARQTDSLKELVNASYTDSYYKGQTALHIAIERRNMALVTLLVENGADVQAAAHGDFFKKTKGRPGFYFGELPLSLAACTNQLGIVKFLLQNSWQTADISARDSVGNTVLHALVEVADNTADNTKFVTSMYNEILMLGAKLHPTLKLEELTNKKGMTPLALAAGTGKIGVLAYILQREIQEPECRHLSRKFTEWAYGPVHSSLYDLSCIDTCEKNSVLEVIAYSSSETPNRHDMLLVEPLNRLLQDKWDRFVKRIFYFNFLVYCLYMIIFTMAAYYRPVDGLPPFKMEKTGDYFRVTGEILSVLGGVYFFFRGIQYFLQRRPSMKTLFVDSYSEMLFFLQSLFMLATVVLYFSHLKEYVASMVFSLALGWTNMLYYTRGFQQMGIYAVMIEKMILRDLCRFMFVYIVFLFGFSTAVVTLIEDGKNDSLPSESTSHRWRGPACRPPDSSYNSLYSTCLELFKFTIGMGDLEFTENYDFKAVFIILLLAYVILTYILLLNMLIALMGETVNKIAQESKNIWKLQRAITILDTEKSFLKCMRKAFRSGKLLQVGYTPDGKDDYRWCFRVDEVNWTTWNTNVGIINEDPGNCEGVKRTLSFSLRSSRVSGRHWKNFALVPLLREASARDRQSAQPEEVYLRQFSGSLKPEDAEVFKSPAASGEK

Row | SMILES | pIC50
1 | N#Cc1cncc(-c2cc(N3CCN(c4ncccc4C(F)(F)F)CC3)nc(N3CCCC3)n2)c1 [Example 886, 5-(2-pyrrolidin-1-yl-6-{4-[3-(trifluoromethyl)pyridin-2-yl]piperazin-1-yl}pyrimidin-4-yl)nicotinonitrile] | ≥ 6.00
2 | CCCN1CCN(c2nc(-c3ccc(F)c(Cl)c3)cc(N3CCN(c4ncccc4C)CC3)n2)CC1 [Example 889, 4-(3-chloro-4-fluorophenyl)-6-[4-(3-methylpyridin-2-yl)piperazin-1-yl]-2-(4-propylpiperazin-1-yl)pyrimidine] | ≥ 6.00
3 | Fc1ccc(-c2cc(N3CCN(c4ncccc4C(F)(F)F)CC3)nc(N3CCN4CCC[C@H]4C3)n2)cc1Cl [Example 891, (8aS)-2-(4-(3-chloro-4-fluorophenyl)-6-{4-[3-(trifluoromethyl)pyridin-2-yl]piperazin-1-yl}pyrimidin-2-yl)octahydropyrrolo[1,2-a]pyrazine] | ≥ 6.00
4 | C[C@@H]1CN(c2ncccc2F)CCN1c1cc(-c2ccc(F)c(F)c2)nc(Cl)n1 [Example 894, 2-chloro-4-(3,4-difluorophenyl)-6-[(2R)-4-(3-fluoropyridin-2-yl)-2-methylpiperazin-1-yl]pyrimidine] | ≥ 6.00
5 | C[C@@H]1CN(c2ncccc2F)CCN1c1cc(-c2ccc(F)c(F)c2)nc(N2CCOCC2)n1 [Example 897, 4-{4-(3,4-difluorophenyl)-6-[(2R)-4-(3-fluoropyridin-2-yl)-2-methylpiperazin-1-yl]pyrimidin-2-yl}morpholine] | ≥ 6.00
6 | Cc1cc(-c2cc(N3CCN(c4ncccc4Cl)C[C@@H]3C)nc(Cl)n2)ccc1F [Example 898, 2-chloro-4-[(2S)-4-(3-chloropyridin-2-yl)-2-methylpiperazin-1-yl]-6-(4-fluoro-3-methylphenyl)pyrimidine] | ≥ 6.00
7 | Cc1cc(-c2cc(N3CCN(c4ncccc4Cl)C[C@@H]3C)nc(N3CCCC3)n2)ccc1F [Example 902, 4-[(2S)-4-(3-chloropyridin-2-yl)-2-methylpiperazin-1-yl]-6-(4-fluoro-3-methylphenyl)-2-pyrrolidin-1-ylpyrimidine] | ≥ 6.00
8 | Cc1cc(-c2cc(N3CCN(c4ncccc4Cl)C[C@@H]3C)nc(N3CCOCC3)n2)ccc1F [Example 904, 4-[4-[(2S)-4-(3-chloropyridin-2-yl)-2-methylpiperazin-1-yl]-6-(4-fluoro-3-methylphenyl)pyrimidin-2-yl]morpholine] | ≥ 6.00
9 | C[C@@H]1CN(c2nccnc2Cl)CCN1c1nc(Cl)cc(-c2ccc(F)c(Cl)c2)n1 [Example 906, 4-chloro-6-(3-ohloro-4-fluorophenyl)-2-[4-(3-chloropyrazin-2-yl)-2-methylpiperazin-1-yl]pyrimidine] | ≥ 6.00
10 | CC1CCCN1c1nc(-c2ccc(F)c(Cl)c2)cc(N2CCN(c3nccnc3Cl)C[C@H]2C)n1 (stereo partly shown) [Example 908] | ≥ 6.00
11 | C[C@@H]1CN(c2nccnc2Cl)CCN1c1cc(-c2ccc(F)c(Cl)c2)nc(N2CCCC2)n1 [Example 909, 4-(3-chloro-4-fluorophenyl)-6-[(2R)-4-(3-chloropyrazin-2-yl)-2-methylpiperazin-1-yl]-2-pyrrolidin-1-ylpyrimidine] | ≥ 6.00
12 | C[C@@H]1CN(c2nccnc2Cl)CCN1c1cc(-c2ccc(F)c(Cl)c2)nc(N2CCOCC2)n1 [Example 910, 4-{4-(3-chloro-4-fluorophenyl)-6-[(2R)-4-(3-chloropyrazin-2-yl)-2-methylpiperazin-1-yl]pyrimidin-2-yl}morpholine] | ≥ 6.00
13 | CC1CCCN1c1cc(-c2ccc(F)c(Cl)c2)nc(N2CCN(c3nccnc3Cl)C[C@H]2C)n1 (stereo partly shown) [Example 911] | ≥ 6.00
14 | Cc1cc(-c2cc(N3CCN(c4nccnc4Cl)C[C@H]3C)nc(N3CCCC3)n2)ccc1F [Example 914, 4-[(2R)-4-(3-chloropyrazin-2-yl)-2-methylpiperazin-1-yl]-6-(4-fluoro-3-methylphenyl)-2-pyrrolidin-1-ylpyrimidine] | ≥ 6.00
15 | Cc1cc(-c2cc(N3CCN(c4nccnc4Cl)C[C@H]3C)nc(N3CCOCC3)n2)ccc1F [Example 916, 4-[4-[(2R)-4-(3-chloropyrazin-2-yl)-2-methylpiperazin-1-yl]-6-(4-fluoro-3-methylphenyl)pyrimidin-2-yl]morpholine] | ≥ 6.00
16 | Cc1cc(-c2cc(N3CCCC3C)nc(N3CCN(c4ncccc4Cl)C[C@@H]3C)n2)ccc1F (stereo partly shown) [Example 917, 2-[4-(3-chloropyridin-2-yl)-2-methylpiperazin-1-yl]-4-(4-fluoro-3-methylphenyl)-6-(2-methylpyrrolidin-1-yl)pyrimidine] | ≥ 6.00
17 | COc1ccc(Cl)c(N2CCN(c3cc(-c4ccc(F)c(Cl)c4)nc(N4CCCC4C)n3)CC2)n1 (stereo not shown) [Example 918, 4-(3-chloro-4-fluorophenyl)-6-[4-(3-chloro-6-methoxypyridin-2-yl)piperazin-1-yl]-2-(2-methylpyrrolidin-1-yl)pyrimidine] | ≥ 6.00
18 | C[C@@H]1CN(c2nccnc2Cl)CCN1c1cc(-c2ccc(F)cc2)nc(Cl)n1 [Example 920, 2-chloro-4-[(2R)-4-(3-chloropyrazin-2-yl)-2-methylpiperazin-1-yl]-6-(4-fluorophenyl)pyrimidine] | ≥ 6.00
19 | CC1CCCN1c1nc(-c2ccc(F)c(F)c2)cc(N2CCN(c3ncccc3Cl)C[C@@H]2C)n1 (stereo partly drawn) [Example 922, 4-[(2S)-4-(3-chloropyridin-2-yl)-2-methylpiperazin-1-yl]-6-(3,4-difluorophenyl)-2-(2-methylpyrrolidin-1-yl)pyrimidine] | ≥ 6.00
20 | C[C@H]1CN(c2ncccc2Cl)CCN1c1cc(-c2ccc(F)c(F)c2)nc(N2CCOCC2)n1 [Example 923, 4-[4-[(2S)-4-(3-chloropyridin-2-yl)-2-methylpiperazin-1-yl]-6-(3,4-difluorophenyl)pyrimidin-2-yl]morpholine] | ≥ 6.00
21 | Cc1cc(-c2cc(N3CCN(c4ncccc4Cl)C[C@H]3C)nc(N3CCC[C@H]3C)n2)ccc1F [Example 924, 4-[(2R)-4-(3-chloropyridin-2-yl)-2-methylpiperazin-1-yl]-6-(4-fluoro-3-methylphenyl)-2-[(2R)-2-methylpyrrolidin-1-yl]pyrimidine] | ≥ 6.00
22 | C[C@@H]1CN(c2nccnc2Cl)CCN1c1cc(-c2ccc(F)cc2)nc(N2CCC[C@H]2C)n1 [Example 927, 4-[(2R)-4-(3-chloropyrazin-2-yl)-2-methylpiperazin-1-yl]-6-(4-fluorophenyl)-2-[(2R)-2-methylpyrrolidin-1-yl]pyrimidine] | ≥ 6.00

More lines, now with the values ahead:

Row | pIC50 | SMILES
23 | ≥ 6.00 | CC1CCCN1c1nc(-c2cncc(C#N)c2)cc(N2CCN(c3ncccc3C(F)(F)F)CC2)n1 (stereo not shown) [Example 887, 5-(2-(2-methylpyrrolidin-1-yl)-6-{4-[3-(trifluoromethyl)pyridin-2-yl]piperazin-1-yl}pyrimidin-4-yl)nicotinonitrile]
24 | ≥ 6.00 | C[C@@H]1CN(c2ncccc2Cl)CCN1c1cc(-c2ccc(F)cc2)nc(N2CCN3CCC[C@H]3C2)n1 [Example 890, (8aS)-2-[4-[(2R)-4-(3-chloropyridin-2-yl)-2-methylpiperazin-1-yl]-6-(4-fluorophenyl)pyrimidin-2-yl]octahydropyrrolo[1,2-a]pyrazine]
25 | ≥ 6.00 | FC(F)(F)c1cccnc1N1CCN(c2cc(-c3cccc(Cl)c3)nc(N3CCN4CCC[C@H]4C3)n2)CC1 [Example 892, (8aS)-2-(4-(3-chlorophenyl)-6-{4-[3-(trifluoromethyl)pyridin-2-yl]piperazin-1-yl}pyrimidin-2-yl)octahydropyrrolo[1,2-a]pyrazine]
26 | ≥ 6.00 | CN(C)CCC(O)c1nc(-c2ccc(F)c(F)c2)cc(N2CCN(c3ncccc3C(F)(F)F)CC2)n1 (stereo not shown) [Example 893]
27 | ≥ 6.00 | CC1CCCN1c1nc(-c2ccc(F)c(F)c2)cc(N2CCN(c3ncccc3F)C[C@H]2C)n1 (stereo partly shown) [Example 895, 4-(3,4-difluorophenyl)-6-[4-(3-fluoropyridin-2-yl)-2-methylpiperazin-1-yl]-2-(2-methylpyrrolidin-1-yl)pyrimidine]
28 | ≥ 6.00 | C[C@@H]1CN(c2ncccc2F)CCN1c1cc(-c2ccc(F)c(F)c2)nc(N2CCCC2)n1 [Example 896, 4-(3,4-difluorophenyl)-6-[(2R)-4-(3-fluoropyridin-2-yl)-2-methylpiperazin-1-yl]-2-pyrrolidin-1-ylpyrimidine]
29 | ≥ 6.00 | Cc1cc(-c2cc(N3CCN(c4ncccc4Cl)C[C@H]3C)nc(N(C)C(C)CO)n2)ccc1F (stereo partly shown) [Example 905, 2-[[4-[4-(3-chloropyridin-2-yl)-2-methylpiperazin-1-yl]-6-(4-fluoro-3-methylphenyl)pyrimidin-2-yl](methyl)amino]propan-1-ol]
30 | ≥ 6.00 | Cc1cc(-c2cc(N3CCN(c4nccnc4Cl)C[C@H]3C)nc(Cl)n2)ccc1F [Example 912, 2-chloro-4-[(2R)-4-(3-chloropyrazin-2-yl)-2-methylpiperazin-1-yl]-6-(4-fluoro-3-methylphenyl)pyrimidine]
31 | ≥ 6.00 | C[C@@H]1CN(c2nccnc2Cl)CCN1c1nc(Cl)cc(-c2ccc(F)cc2)n1 [Example 919, 4-chloro-2-[(2R)-4-(3-chloropyrazin-2-yl)-2-methylpiperazin-1-yl]-6-(4-fluorophenyl)pyrimidine]
32 | ≥ 6.00 | C[C@H]1CN(c2ncccc2Cl)CCN1c1cc(-c2ccc(F)c(F)c2)nc(N2CCCC2)n1 [Example 921, 4-[(2S)-4-(3-chloropyridin-2-yl)-2-methylpiperazin-1-yl]-6-(3,4-difluorophenyl)-2-pyrrolidin-1-ylpyrimidine]
33 | ≥ 6.00 | C[C@@H]1CN(c2ncccc2Cl)CCN1c1cc(-c2ccc(F)c(F)c2)nc(N2CCC[C@H]2C)n1 [Example 925, 4-[(2R)-4-(3-chloropyridin-2-yl)-2-methylpiperazin-1-yl]-6-(3,4-difluorophenyl)-2-[(2R)-2-methylpyrrolidin-1-yl]pyrimidine]
34 | ≥ 6.00 | CC1CCCN1c1nc(-c2ccc(F)cc2)cc(N2CCN(c3nccnc3Cl)C[C@H]2C)n1 (stereo partly shown) [Example 926, 4-[4-(3-chloropyrazin-2-yl)-2-methylpiperazin-1-yl]-6-(4-fluorophenyl)-2-(2-methylpyrrolidin-1-yl)pyrimidine]

From patent US7566712B2, “Biaryl piperazinyl-pyridine analogues” (Neurogen Corporation, priority 2003, dated 2009)
